# Reference: a melting point compilation (Tetko et al.; mined from patent text by program, amines drawn as free bases though some values may be those of a salt)
row,Compound,melting point [°C]
1,COC[C@@H]1CC[C@H](c2ccc(F)cc2)N1S(=O)(=O)c1ccc(C)cc1 (racemic),152
2,COC(=O)C1CC(=O)C(NC(C)=O)=C(O)C1 (stereo not drawn),131 to 132
3,C=CCc1cc(C(C)=O)c(O)cc1OCCCCCC(N)=O,122 to 124
4,O=[N+]([O-])c1ccc2c(c1)OC(CO)O2 (stereo not drawn),80 to 82
5,CC(C)NC(=N)NC1=NC(=O)C(=O)N1c1ccc(Cl)c(Cl)c1,244
6,Cc1nnc(S(C)(=O)=O)o1,70 to 71
7,CCOC(=O)C(Cc1ccc(S)cc1)(NC(C)=O)C(=O)OCC,125 to 128
8,Cc1ccc(=NC(=O)C(F)(F)F)n(-c2cccc(C(F)(F)F)c2)c1,115
9,COCCn1cc2c(C3C(=O)Nc4ccc(Br)cc43)nc(Cl)nc2n1 (stereo not drawn),> 300
10,CCCCCCCCCCCCCCCCCCOCc1ccc(C(=O)O)cc1OCCCCCCCCCCCCCCCCCC,87 to 88
11,CCCS(=O)(=O)c1ccccc1S(=O)(=O)NC(=O)Nc1nc(Cl)cc(OC)n1,193 to 195
12,O=CN1CCN(c2ccc3cc(F)ccc3n2)CC1,110 to 111
13,CC(=O)c1cc2c(s1)Oc1ccccc1N=C2N1CCN(C)CC1,143 to 144
14,CCOC(=O)c1cn([C@@H]2C[C@@H]2F)c2c(C)c(F)ccc2c1=O,187 to 188
15,OCC1CC(O)C(n2c(Br)nc3cc(Cl)c(Cl)cc32)C1 (stereo not drawn),218 to 220
16,O=C(O)c1cc2cc(C(=O)c3cccs3)c(Cl)c(Cl)c2o1,243 to 245
17,CCC1CCC2(C)C(=CCC3C4CC(O)C(=O)C4(C)CCC32)C1 (stereo not drawn),166 to 168
18,CN(C(=O)Oc1cccc2c1OC(C)(C)C2)C(=O)N1CCCCC1,98 to 100
19,O=C(Nc1ccc(Cl)cn1)c1cc(Cl)ccc1NCC1CCN(C2CCCCC2)CC1,186 to 188
20,CCOC(=O)C1(C(=O)OCC)CC(c2ccc(Cl)cc2[N+](=O)[O-])=CN1C(C)=O,90 to 95
21,CCOC(=O)C1C(C=C(Br)Br)C1(C)C (stereo not drawn),110

row,Compound,melting point [°C]
1,COC(=O)C(C)=Cc1cc(N)ccc1Cl,80
2,CCOC(=O)/C=C/C(=C(c1ccc(F)cc1)c1ccc(F)cc1)C(C)C,66 to 67
3,N#Cc1c(N2CCCCC2)cccc1[N+](=O)[O-],119 to 121
4,Cn1nc2nnsc2c1C(N)=O,183 to 184
5,C#Cc1cc(Cl)cc2c1OC(C(F)(F)F)C(C(=O)O)=C2 (stereo not drawn),186 to 189
6,C#CCOC(C(=O)O)c1ccc(Cl)cc1 (stereo not drawn),69 to 70
7,Cc1ccc2c(c1)NC(=O)C(NC(=O)Nc1cccc(Cl)c1)CC2C1CCCCC1 (stereo not drawn),162 to 169
8,CCCCCN(CCC12CC3CC(CC(C3)C1)C2)C(=O)NC/C=C/c1ccncc1,90 to 118
9,Oc1cc(C(F)(F)F)nn1-c1ccccc1,190 to 192
10,COC(=O)COc1ccc2c(O)c(C(C)=O)ccc2c1,118 to 120
11,CCCC(Oc1ccccc1)C(=O)NCCO[N+](=O)[O-] (stereo not drawn),68 to 70
12,O=C(c1ccc(SC2SCC(O)C(O)C2O)cc1)C(F)(F)F (stereo not drawn),133 to 134
13,CCOC(=O)c1cc(-c2csc(C)n2)[nH]n1,141 to 142
14,O=C(O)c1ccc2c(c1)Sc1ccc(F)cc1C(=O)C2,289 to 291
15,CC12CCC(=O)C=C1CCC1C2CCC2(C)C(C(F)F)CCC12 (stereo not drawn),137 to 140
16,O=C(Cc1ccc(Cl)c(Cl)c1)N(O)[C@H](CN1CCCC1)c1ccccc1,118 to 120
17,CCC(=O)c1sc(SC)c2c1CCc1cnn(C)c1-2,119 to 120
18,CC(C)(C)OC(=O)Nc1ccncc1N,124 to 126
19,CC1CN(c2c(F)cc3c(=O)c(C(=O)O)cn(C4CC4)c3c2Cl)CC1CN (stereo not drawn),235 to 238
20,Clc1ccc2nncc(Cl)c2c1,111 to 113
21,CC1(C)c2ccccc2N2Cc3cc([N+](=O)[O-])ccc3OC21C (stereo not drawn),180

row,Compound,melting point [°C]
1,O=C(O)CNC(=O)c1nc(Cl)c2cc(Cl)c(Cl)cc2c1O,265
2,ClCCN1c2cc3c(cc2C(c2cccs2)=NCC1CCl)OCCO3 (stereo not drawn),184 to 187
3,CC(C)C1c2onc(-c3ccc(Cl)cc3)c2CCC1C(=O)O (stereo not drawn),180 to 182
4,COc1ccc(CNc2nc(CCCCCCC(=O)O)nc3sc(Cl)cc23)cc1Cl,137
5,ClC=C(c1ccc(Cl)cc1)c1ccc(Cl)cc1,65 to 67
6,N#CCN1CCC(N2CCN(CCCN3CCCCC3)C2=C(C#N)C#N)CC1,135 to 136
7,CC(C)N1C(=O)C(=O)NC1=NC(=N)Nc1ccc(Cl)c(Cl)c1,230
8,CO/N=C(/CNC(=O)c1cnc(O[C@@H](C)C(F)(F)F)c(-c2ccc(Cl)cc2)n1)C1CC1,149 to 152
9,CC1OC(n2cnc3c(S(N)(=O)=O)nc(N)nc32)C(O)C1O (stereo not drawn),> 90
10,CCCC1(C)CC(C)c2ccc(O)c(C)c2O1 (stereo not drawn),60
11,CNC(=O)N1N=C(c2ccc(N)cc2)c2cc3c(cc2CC1CO)OCO3 (stereo not drawn),136 to 138
12,C#CCOc1nsc(SC(F)F)c1C#N,83 to 84
13,COc1cc2c(cc1OC)C1=NCCc3cccc(c31)C2=O,228
14,CCOC(=O)C1CCN(c2ccc(/C=C/C(=O)O)cc2)CC1,212
15,NS(=O)(=O)c1cccc(C2OCCO2)c1,145 to 147
16,CC(C)(C)c1cc(C(=O)O)cc(I)c1O,178
17,CNS(=O)(=O)c1cc2c(c(C(=O)NCC3CCCN3C)c1)OCCO2 (stereo not drawn),187 to 188
18,CCC12CCC(=O)C=C1c1c(cc(OCC(=O)OCC3COC(C)(C)O3)c(Cl)c1Cl)C2 (stereo not drawn),143 to 145
19,COC(=O)C(c1ccccc1)n1cncc1C=O (stereo not drawn),106 to 109
20,COC(=O)c1ccc(Cc2c(Cl)n(C)c3ccc(CC(C)NC(=O)N(C)C)cc23)c(OC)c1 (stereo not drawn),148

# Continued, values first:
row,melting point [°C],Compound
1,> 260,O=C(Nc1ccc(-c2nnn[nH]2)cc1)Oc1ccc([N+](=O)[O-])cc1
2,91 to 92,O=C(OCCCc1ccccc1)c1ccc2c(c1)C(Cl)(Cl)c1cc(C(=O)OCCCc3ccccc3)ccc1-2
3,162 to 163,Nc1ccc2c(=O)n(-c3ccccc3)c(=O)n(-c3ccccc3)c2n1
4,154 to 156,O=Cc1ccc2cc(O)ccc2c1
5,> 280,O=C(Nc1nccs1)c1nc(-c2ccc([N+](=O)[O-])cc2)[nH]c1-c1ccc(CCl)cc1
6,194 to 196,O=C(c1ccccc1)N1CCCC2=C1CCc1cc(Cl)ccc12
7,229 to 231,O=C(O)c1ccccc1SCCCCOc1ccc(C=Cc2ccncc2)cc1
8,167 to 168,CC(=O)Oc1ccc(S(=O)(=O)ON=C2c3ccccc3-c3ccccc32)cc1
9,143 to 146,NC(=O)c1cc(NCc2ccccc2)c([N+](=O)[O-])cc1[N+](=O)[O-]
10,115 to 116,CCOc1nn(-c2ccc(C(F)(F)F)cn2)cc1CCCOc1nn(C)cc1CC(=O)O
11,170 to 172,COc1ccc(C2Cc3cc(C(F)(F)F)ccc3NC(=O)C2COS(=O)(=O)c2ccc(C)cc2)cc1 (stereo not drawn)
12,246 to 248,O=C(Nc1nnc(C2CC2)o1)C1c2ccccc2Oc2ccccc21
13,154 to 155,O=C(c1ccc(F)cc1C(F)(F)F)N1Cc2cccn2Cc2ccccc21
14,142 to 144,O=C(O)CC(CCc1ccc(O)cc1)CC(=O)O
15,221 to 223,Nc1ccc2[nH]nc(Nc3nc(-c4ccccc4C(F)(F)F)nc4ccccc34)c2c1
16,141 to 143,Cc1ccccc1-n1c(-c2sc(Nc3ccccc3)nc2-c2ccccc2)nc2ccccc2c1=O
17,111 to 112,N#Cc1cccc(C=Cc2cccc(F)c2)n1
18,136,Brc1ccc(Cc2cc3ccccc3[nH]2)cc1
19,52 to 55,COc1ccc(CONCc2ccc(OC)cc2OC)cc1
20,119 to 120,COC1(c2ccc(Sc3ccc4c(ccc(=O)n4C)c3)s2)CCOCC1
21,193 to 196,COc1ccc(-n2nc(NC(=O)N(C)C)cc2-c2ccc(OCCNC(N)=O)cc2)cc1

row,melting point [°C],Compound
1,174 to 177,Cc1ccc(S(=O)(=O)OCCOc2ccc3[nH]nc(S(=O)(=O)c4ccccc4)c3c2)cc1
2,92 to 94,COC(=O)c1ccc(/C=C/c2cnc3ccccc3c2)cc1
3,200 to 201,Cc1c(Cc2cccc(C(F)(F)F)c2)oc2c(-c3cc(C(=O)NCCC#N)ccn3)cccc12
4,92 to 93,COC(=O)c1ccccc1-c1cc(-c2ccc(OC)cc2)[nH]n1
5,205,Cc1nc(NCCc2ccc(OCc3nn[nH]n3)cc2)c2cc(C)sc2n1
6,109 to 113,O=C1CCCc2cc(OCCOc3ccccc3)ccc21
7,142 to 143,C(=C\c1nc(COc2ccc(CCCn3ccnn3)cc2)co1)/c1ccccc1
8,123 to 125,COc1ccc2nc(-n3nc(CCCO)cc3-c3ccc(Cl)cc3)sc2c1
9,115 to 118,COC(=O)Cc1ccc(-c2ccc(O)cc2)c(F)c1
10,150 to 151,CCc1nc(/C=C/c2cn(-c3ccccc3)nc2OCc2ccc(OCc3nc(-c4ccc(C(=O)O)s4)oc3C)c(OC)c2)cs1
11,140 to 141,CC(C)(C)NS(=O)(=O)c1ccccc1-c1ccc(NC(=O)N(Cc2cccc(C(=N)N)c2)c2ccccc2)cc1
12,157 to 158,O=C(O)C(=O)c1ccc(S(=O)CCOc2ccc3ccccc3c2)cc1 (stereo not drawn)
13,195 to 196,CCCCc1nc2c(N)nc3ccccc3c2n1CCCCNS(C)(=O)=O
14,112 to 114,O=[N+]([O-])c1cccc(OCc2csc(-c3ccccc3)n2)c1
15,78.5 to 80,CC1=CC(N(C)Cc2ccccc2)C(O)C(C)(C)CC1=O (stereo not drawn)
16,201 to 206,O=C1NCCN1N=Cc1ccccc1
17,265 to 266,"CC12CCC(=O)NC1CCc1cc(-c3cnc4ccccc4c3)ccc12 (single isomer, unassigned; (+))"
18,259 to 263,CCOC(=O)/C=C/C(=O)Nc1ccc2ncnc(Nc3cccc(Br)c3)c2c1
19,200 to 203,CCc1cc(C(=O)c2ccccc2Cl)c(-n2c(CNC(=O)c3cc4ccccc4n3CC(=O)O)nnc2C(F)(F)F)s1
20,180 to 185,CN1C(=O)CC[C@]2(C)c3ccc(-c4cnc5ccccc5c4)cc3CC[C@@H]12
